Assay results as given in ChEMBL document CHEMBL1201862, “PubChem BioAssay data set” (2004).
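Following 48 hours of exposure in 96-well plates, responses at five concentrations were used to interpolate endpoints linearly. GI50 is the concentration that inhibits growth by half.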 The source made the active and inactive calls. Cut-off read from the data, not from the text of the source: active = GI50 up to about 1.1 µM and inactive = higher.

Columns and labels:
Test in all cases: growth of human tumour cells (NCI), 48 h
Malme-3M = tested on: Malme-3M
OVCAR-5 = tested on: OVCAR-5
U-251 = tested on: U-251
SK-OV-3 = tested on: SK-OV-3
IGROV-1 = tested on: IGROV-1
CCRF-CEM = tested on: CCRF-CEM
SF-539 = tested on: SF-539
UACC-257 = tested on: UACC-257
A498 = tested on: A498
SNB-75 = tested on: SNB-75
OVCAR-3 = tested on: OVCAR-3
HOP-62 = tested on: HOP-62
HCT-116 = tested on: HCT-116
NCI-H23 = tested on: NCI-H23
SNB-19 = tested on: SNB-19
CAKI-1 = tested on: CAKI-1
OVCAR-4 = tested on: OVCAR-4
SR = tested on: SR

Measured: GI50

Clc1ccc(C2=NN(c3ccccc3)C3c4cc(Br)ccc4OCC23)cc1 (stereo not given)
inactive: Malme-3M 96.4 µM | OVCAR-5 > 100 µM | U-251 67.3 µM | SK-OV-3 > 100 µM | IGROV-1 > 100 µM | CCRF-CEM 61.9 µM | SF-539 > 100 µM | UACC-257 99.1 µM | A498 > 100 µM | SNB-75 > 100 µM | OVCAR-3 > 100 µM | HOP-62 > 100 µM | HCT-116 18.6 µM | NCI-H23 86.9 µM | SNB-19 > 100 µM

N#C/C(=C/Sc1ccccc1)C(=O)O
inactive: OVCAR-5 29.6 µM | U-251 13.5 µM | SK-OV-3 59.4 µM | IGROV-1 17.9 µM | CCRF-CEM 9.25 µM | SF-539 18.2 µM | UACC-257 34.4 µM | CAKI-1 27.3 µM | SNB-75 19.2 µM | OVCAR-4 40.7 µM | OVCAR-3 27.1 µM | HOP-62 43.9 µM | SR > 100 µM | HCT-116 17.4 µM | NCI-H23 45.1 µM | SNB-19 56.2 µM

N#CC(NNC(=O)Cc1ccccc1)c1cccc(O)c1 (stereo not given)
inactive: Malme-3M > 100 µM | OVCAR-5 > 100 µM | U-251 > 100 µM | SK-OV-3 > 100 µM | IGROV-1 > 100 µM | CCRF-CEM > 100 µM | SF-539 > 100 µM | UACC-257 > 100 µM | CAKI-1 > 100 µM | SNB-75 > 100 µM | OVCAR-4 > 100 µM | HOP-62 > 100 µM | SR > 100 µM | HCT-116 > 100 µM | NCI-H23 > 100 µM

COc1ccc(CC2=NCCc3cc(OC)c(OC)cc32)cc1Br
inactive: Malme-3M 22.8 µM | OVCAR-5 1.99 µM | U-251 18.1 µM | SK-OV-3 16.9 µM | IGROV-1 > 10 µM | CCRF-CEM 12.4 µM | SF-539 24.7 µM | UACC-257 21.3 µM | A498 13.1 µM | CAKI-1 12.1 µM | OVCAR-4 15.2 µM | HOP-62 4.36 µM | SR 11.9 µM | NCI-H23 8.69 µM | SNB-19 12.7 µM

Nc1ccc(C(=O)NN2C(=O)C(Cl)C2c2cccc([N+](=O)[O-])c2)cc1 (stereo not given)
inactive: Malme-3M 20.4 µM | OVCAR-5 21.1 µM | U-251 13.9 µM | SK-OV-3 18.7 µM | IGROV-1 14.3 µM | CCRF-CEM 9.79 µM | SF-539 20.7 µM | UACC-257 23.1 µM | A498 28.5 µM | CAKI-1 19.5 µM | SNB-75 18.7 µM | OVCAR-4 16.4 µM | OVCAR-3 20.5 µM | HOP-62 24.6 µM | HCT-116 17.3 µM | NCI-H23 16.4 µM | SNB-19 17.3 µM

O=S1(=O)NN=C(NCc2ccc(Cl)c(Cl)c2)c2ccccc21
inactive: Malme-3M > 100 µM | OVCAR-5 > 100 µM | U-251 30.2 µM | IGROV-1 > 100 µM | CCRF-CEM 9.16 µM | SF-539 > 100 µM | UACC-257 > 100 µM | A498 > 100 µM | CAKI-1 > 100 µM | OVCAR-4 > 100 µM | OVCAR-3 > 100 µM | SR 15.6 µM | HCT-116 > 100 µM | SNB-19 > 100 µM

N=NCC(=O)OC(COCc1ccccc1)COCc1ccccc1
inactive: Malme-3M > 100 µM | OVCAR-5 > 100 µM | U-251 > 100 µM | SK-OV-3 > 100 µM | IGROV-1 > 100 µM | CCRF-CEM 57.8 µM | UACC-257 > 100 µM | A498 > 100 µM | CAKI-1 37.9 µM | OVCAR-4 69.7 µM | OVCAR-3 > 100 µM | HOP-62 > 100 µM | SR > 100 µM | HCT-116 > 100 µM | NCI-H23 > 100 µM | SNB-19 > 100 µM

O=C1C(Cl)C(c2ccc([N+](=O)[O-])cc2)N1n1cnc2ccccc2c1=O (stereo not given)
inactive: Malme-3M > 100 µM | OVCAR-5 > 100 µM | U-251 47.8 µM | SK-OV-3 9.75 µM | IGROV-1 75.5 µM | CCRF-CEM 17.6 µM | UACC-257 > 100 µM | CAKI-1 60.1 µM | SNB-75 13.9 µM | OVCAR-4 5.64 µM | OVCAR-3 52.4 µM | HOP-62 34.5 µM | HCT-116 43.9 µM | NCI-H23 32.6 µM | SNB-19 73.3 µM

COc1ccccc1/N=C(\N)N/N=C/c1c[nH]c2ccccc12
inactive: Malme-3M 2.58 µM | OVCAR-5 13.9 µM | U-251 11.6 µM | SK-OV-3 15.6 µM | IGROV-1 11 µM | CCRF-CEM 5.93 µM | SF-539 13.5 µM | UACC-257 2.39 µM | CAKI-1 13.3 µM | SNB-75 12.3 µM | OVCAR-4 16.8 µM | OVCAR-3 12.2 µM | HOP-62 16.3 µM | SR 5.01 µM | HCT-116 6.81 µM | NCI-H23 4.79 µM | SNB-19 15.3 µM

O=C(N/N=C/c1cc(-c2ccccc2Cl)c(-c2ccccc2Cl)o1)c1ccncc1
inactive: Malme-3M > 100 µM | OVCAR-5 > 100 µM | SK-OV-3 > 100 µM | IGROV-1 > 100 µM | SF-539 > 100 µM | UACC-257 > 100 µM | A498 > 100 µM | CAKI-1 > 100 µM | SNB-75 81.7 µM | OVCAR-4 > 100 µM | OVCAR-3 43.9 µM | HOP-62 > 100 µM | HCT-116 > 100 µM | NCI-H23 > 100 µM | SNB-19 > 100 µM

COc1ccc(S(=O)(=O)NC(C)C(=O)O)cc1 (stereo not given)
inactive: Malme-3M > 100 µM | OVCAR-5 > 100 µM | U-251 > 100 µM | SK-OV-3 > 100 µM | IGROV-1 > 100 µM | CCRF-CEM > 100 µM | SF-539 > 100 µM | UACC-257 > 100 µM | A498 > 100 µM | CAKI-1 > 100 µM | SNB-75 70.5 µM | OVCAR-4 > 100 µM | OVCAR-3 > 100 µM | NCI-H23 > 100 µM | SNB-19 > 100 µM

CC(=O)Nc1ccc(C2CC(c3ccc([N+](=O)[O-])cc3)=Nc3ccccc3[S+]2[O-])cc1 (stereo not given)
inactive: Malme-3M > 10 µM | OVCAR-5 50.6 µM | SK-OV-3 27.4 µM | IGROV-1 12.7 µM | CCRF-CEM 11.4 µM | SF-539 24.6 µM | UACC-257 28.6 µM | CAKI-1 > 10 µM | SNB-75 16.9 µM | OVCAR-4 18.9 µM | OVCAR-3 25.3 µM | HOP-62 22.1 µM | NCI-H23 21.5 µM | SNB-19 36.8 µM

CCOc1ccc2c(c1)[n+]([O-])c(-c1ccccc1)c(N)[n+]2[O-]
inactive: Malme-3M 66.7 µM | OVCAR-5 > 100 µM | U-251 47.6 µM | SK-OV-3 > 100 µM | IGROV-1 82.6 µM | CCRF-CEM 50.7 µM | SF-539 51.3 µM | UACC-257 41.5 µM | A498 82.6 µM | CAKI-1 35.6 µM | SNB-75 > 100 µM | OVCAR-4 > 100 µM | OVCAR-3 82.2 µM | HOP-62 71.9 µM | NCI-H23 29.9 µM | SNB-19 > 100 µM
